According to PMC10439952, “JT002, a small molecule inhibitor of the NLRP3 inflammasome for the treatment of autoinflammatory disorders” (Scientific Reports, 2023):
pIC50: −log10 of the molar value.

Tests used:
Format in all cases: cell-based
[1] = target: T1, NLRP3 inflammasome (Mus musculus, UniProt Q8R4B8); experiment: Inhibition of IL-1β production in mouse PBMCs stimulated by LPS + nigericin; parameters: host or cells: mouse PBMCs; mouse bone-marrow derived macrophages; mouse whole blood (C57BL/6 in the ex vivo study); conditions: Mouse PBMC, read-out: Geo Av IC50, IL-1β
T1 sequence (Q8R4B8 whole entry): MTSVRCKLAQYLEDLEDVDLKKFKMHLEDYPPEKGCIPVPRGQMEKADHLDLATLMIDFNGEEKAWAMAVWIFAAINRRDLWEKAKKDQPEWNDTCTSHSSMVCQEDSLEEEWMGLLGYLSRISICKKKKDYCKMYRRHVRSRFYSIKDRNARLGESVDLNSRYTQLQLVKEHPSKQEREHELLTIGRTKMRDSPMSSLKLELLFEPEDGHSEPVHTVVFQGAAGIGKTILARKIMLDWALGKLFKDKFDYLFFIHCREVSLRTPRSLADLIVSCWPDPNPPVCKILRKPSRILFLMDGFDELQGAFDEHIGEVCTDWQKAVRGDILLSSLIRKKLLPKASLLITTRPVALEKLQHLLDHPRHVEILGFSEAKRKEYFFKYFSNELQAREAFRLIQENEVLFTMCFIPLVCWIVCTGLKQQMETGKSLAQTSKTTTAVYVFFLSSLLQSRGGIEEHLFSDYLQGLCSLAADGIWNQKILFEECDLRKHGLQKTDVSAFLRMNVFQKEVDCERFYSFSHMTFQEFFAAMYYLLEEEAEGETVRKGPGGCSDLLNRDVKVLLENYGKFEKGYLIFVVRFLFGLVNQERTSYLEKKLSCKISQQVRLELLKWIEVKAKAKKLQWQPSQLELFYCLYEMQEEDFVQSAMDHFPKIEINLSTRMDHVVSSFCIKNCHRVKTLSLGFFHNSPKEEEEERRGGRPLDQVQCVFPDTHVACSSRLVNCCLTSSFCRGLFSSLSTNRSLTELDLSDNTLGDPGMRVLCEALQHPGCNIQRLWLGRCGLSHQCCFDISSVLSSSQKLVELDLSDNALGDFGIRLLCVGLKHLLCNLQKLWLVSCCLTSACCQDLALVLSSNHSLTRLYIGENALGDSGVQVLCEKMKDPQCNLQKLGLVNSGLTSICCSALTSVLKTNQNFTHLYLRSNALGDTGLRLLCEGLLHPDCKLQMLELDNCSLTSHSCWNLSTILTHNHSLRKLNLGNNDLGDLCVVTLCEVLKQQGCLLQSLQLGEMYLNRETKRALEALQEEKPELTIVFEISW
Experimental: (§1) Inflammasome activation and whole blood assays were essentially carried out as described earlier. Details can be found in the supplementary information section accompanying this publication. A protocol for blood draws from healthy volunteers and use of the blood in preclinical assays was approved by Western Institutional Review Board, Inc (Puyallup, WA, USA). Informed consent was obtained from each donor prior to the first blood draw.
(§2) Cell viability was determined by addition of an equal volume of CellTiter-Glo® 2.0 reagent (Promega) to the remaining cells/supernatant in each well. Intracellular Caspase-1 activity was measured using the Caspase-Glo® assay (Promega) according to the manufacturer’s instructions. The biochemical capsase-1 assay was conducted at Reaction Biology Corporation (Malvern, USA). Human IL-1β, IL-1α, and TNFα and mouse IL-1β were measured in cell culture supernatants using homogeneous time resolved fluorescence assay kits (HTRF, Cisbio, Codolet, France). Human IL-18 was measured in cell culture supernatants using an ELISA kit (R&D Systems, Minneapolis, MN, USA). Plasma IL-1β concentrations were determined by Quantikine® ELISA (R&D Systems, Minneapolis, MN).
(§3) 4H). MS: m/z 433.1 (M+H+). […]

[2] = target: T2, NLRC4 inflammasome (Mus musculus, UniProt Q3UP24); experiment: IL-1β production in mouse BMDMs after NLRC4 activation (LPS + flagellin); conditions: mBMDMs, concentrations up to 10 µM
T2 construct: host or cells: mouse BMDMs, LPS + transfected flagellin
T2 sequence (Q3UP24 whole entry): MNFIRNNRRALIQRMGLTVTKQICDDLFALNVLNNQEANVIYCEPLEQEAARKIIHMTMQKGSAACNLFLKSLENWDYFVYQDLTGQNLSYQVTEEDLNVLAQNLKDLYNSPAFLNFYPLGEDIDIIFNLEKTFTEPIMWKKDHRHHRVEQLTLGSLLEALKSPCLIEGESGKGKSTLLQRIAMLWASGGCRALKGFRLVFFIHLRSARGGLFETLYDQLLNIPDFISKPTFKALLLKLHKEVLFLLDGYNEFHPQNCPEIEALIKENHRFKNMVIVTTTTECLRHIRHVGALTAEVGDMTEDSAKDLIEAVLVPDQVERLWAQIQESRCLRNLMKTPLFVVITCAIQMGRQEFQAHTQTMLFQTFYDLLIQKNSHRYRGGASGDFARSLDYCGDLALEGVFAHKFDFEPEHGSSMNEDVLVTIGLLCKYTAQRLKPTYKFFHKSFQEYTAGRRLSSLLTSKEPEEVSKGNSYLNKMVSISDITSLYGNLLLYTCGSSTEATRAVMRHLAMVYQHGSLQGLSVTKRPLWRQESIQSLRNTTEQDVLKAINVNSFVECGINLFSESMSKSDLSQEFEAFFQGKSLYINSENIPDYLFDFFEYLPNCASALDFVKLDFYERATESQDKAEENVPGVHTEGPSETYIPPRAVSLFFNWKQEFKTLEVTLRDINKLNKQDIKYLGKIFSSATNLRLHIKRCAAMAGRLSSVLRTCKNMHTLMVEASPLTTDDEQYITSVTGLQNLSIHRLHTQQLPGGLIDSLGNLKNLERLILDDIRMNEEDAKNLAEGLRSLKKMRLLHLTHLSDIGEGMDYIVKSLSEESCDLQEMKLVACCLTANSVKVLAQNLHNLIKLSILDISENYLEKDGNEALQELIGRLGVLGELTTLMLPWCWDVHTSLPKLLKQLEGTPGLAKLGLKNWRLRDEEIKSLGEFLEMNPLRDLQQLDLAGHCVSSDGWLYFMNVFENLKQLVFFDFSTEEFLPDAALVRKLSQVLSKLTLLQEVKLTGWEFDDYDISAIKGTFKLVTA
Experimental: as §2, §3
flagellin, prepared in Opt iMEM and combined with Lipofectamine 2000. […] After priming Nlrp3 -/- mBMDMs with 100 ng/mL of LPS for 3- 5 h, cells were exposed to 100 ng/mL L18- MDP and incubated overnight.At the end of the incubation period of the assays above, plates were briefly centri fuged and hal f of the cell culture supern atant remo ved and either analysed i mmediately or stored at - 80°C for subs equent cytokine […]

[3] = target: T1, NLRP3 inflammasome; experiment: Inhibition of IL-1β production in mouse BMDMs stimulated by LPS + ATP; parameters: host or cells: mouse PBMCs; mouse bone-marrow derived macrophages; mouse whole blood (C57BL/6 in the ex vivo study); conditions: Mouse BMDM, read-out: Geo Av IC50, IL-1β
Experimental: as §1, §2, §3

[4] = target: NLRP3 inflammasome (Homo sapiens, UniProt Q96P20); experiment: Inhibition of IL-1β production in human PBMCs stimulated by LPS + nigericin; parameters: host or cells: human PBMCs; fresh heparinised human whole blood from healthy volunteers; conditions: Human PBMC, read-out: Geo Av IC50, IL-1β
Sequence of NLRP3 inflammasome (Homo sapiens, UniProt Q96P20) (Q96P20 whole entry): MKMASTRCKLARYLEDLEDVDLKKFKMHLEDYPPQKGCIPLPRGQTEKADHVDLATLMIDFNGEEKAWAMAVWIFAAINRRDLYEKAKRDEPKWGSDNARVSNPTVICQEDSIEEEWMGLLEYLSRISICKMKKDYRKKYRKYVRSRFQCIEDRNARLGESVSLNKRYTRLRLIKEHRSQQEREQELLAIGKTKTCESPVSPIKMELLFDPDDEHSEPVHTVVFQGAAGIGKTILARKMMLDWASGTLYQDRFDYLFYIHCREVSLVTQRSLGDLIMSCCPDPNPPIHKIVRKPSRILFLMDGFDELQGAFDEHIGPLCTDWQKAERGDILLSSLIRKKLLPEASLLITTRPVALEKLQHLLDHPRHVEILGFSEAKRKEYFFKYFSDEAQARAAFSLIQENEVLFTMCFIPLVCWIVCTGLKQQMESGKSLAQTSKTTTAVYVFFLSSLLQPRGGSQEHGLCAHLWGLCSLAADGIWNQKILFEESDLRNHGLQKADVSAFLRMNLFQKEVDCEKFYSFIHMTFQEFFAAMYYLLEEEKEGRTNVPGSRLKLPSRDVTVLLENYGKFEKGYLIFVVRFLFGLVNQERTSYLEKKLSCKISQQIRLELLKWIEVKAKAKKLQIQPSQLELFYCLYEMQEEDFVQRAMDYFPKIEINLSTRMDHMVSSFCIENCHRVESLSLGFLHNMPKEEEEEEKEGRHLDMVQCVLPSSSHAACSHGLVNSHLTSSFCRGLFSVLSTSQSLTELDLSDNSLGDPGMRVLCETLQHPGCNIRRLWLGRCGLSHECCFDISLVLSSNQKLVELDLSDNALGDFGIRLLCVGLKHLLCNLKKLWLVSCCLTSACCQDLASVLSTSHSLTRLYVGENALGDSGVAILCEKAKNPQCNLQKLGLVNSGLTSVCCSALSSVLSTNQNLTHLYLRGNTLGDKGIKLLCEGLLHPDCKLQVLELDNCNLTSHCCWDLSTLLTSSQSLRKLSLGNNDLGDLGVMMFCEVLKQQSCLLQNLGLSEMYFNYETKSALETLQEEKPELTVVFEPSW
Experimental: as §1, §2, §3

pIC50 [1]: 7.60 | inhibition of IL-1β production after NLRC4 activation [2]: no inhibition of IL-1β production | pIC50 [3]: 8.30 | pIC50 [4]: 8.22
SMILES: CO[C@@H]1COc2c(S(=O)(=O)NC(=O)Nc3c4c(cc5c3CCC5)CCC4)cnn2C1 [JT002]
